# Counter-ions that a name gives are not always drawn. Like-named read-outs stand apart in the source and are kept apart here.
# Key:
# [1] = tested on: ADP induced platelet aggregation; assay: Measurement of platelet aggregation with ADP, ex vivo whole blood impedance aggregometry after oral dosing; format: in vivo, rat; details: SD rats, blood 4 h after dosing, 10 μM ADP; for % aggregation: vehicle control = 100%
# Method: Measurement of Platelet Aggregation with ADP
# The activity on the aggregation of plates induced by ADP or collagen was determined ex-vivo.
# The products as a suspension in 5% Gum Arabica (aq.) were administered by oral route to groups of six male rats of the SD strain, weighing 250-300 g. After 4 hours of the administration, 2 ml of blood is collected into the heparinized tubes by puncture of retro-orbital sinus. 0.5 ml of the anticoagulated blood is diluted with an equal volume of isotonic saline solution and incubated at 37° C. for 10 minutes. To the incubated whole blood, 10 μM ADP is added and the change in impedance (Ω), which reflects platelet aggregation, is recorded for 8 minutes with Chronolog Whole Blood Aggregometer (Model 592, Chrono-log Corp., USA). The percentage inhibition of platelet aggregation is calculated by the following formula considering the vehicle control reading as 100%:
# [2] = tested on: FeCl3 induced arterial thrombus formation (common carotid artery); assay: FeCl3 induced Arterial Thrombosis Model; format: in vivo, rat; details: SD rats, 30% FeCl3 1 hour post dosing
# Method: 2. Anti-Thrombotic Activity
# The antithrombotic activity has also been studied in FeCl3 induced Arterial Thrombosis Model according to standard procedures reported by William A. Schumacher et al., 2007 (Journal of Pharmacology and Experimental Therapeutics, 322 (I): 369-377) and Takao Tanaka et al. 2000 (European Journal of Pharmacology, 401: 413-418).
# The products were dissolved in DMSO (1 mg/ml) and diluted in PEG/Water (Ratio: DMSO:PEG:Water=5:50:45), and were administered by the per oral mute to groups of 8 male rats of the SD strain, weighing 250-300 g after overnight fast. 1 hour post dosing, rats were anesthetized with Ketamine (100 mg/kg; i.p.), Xylazine (10 mg/kg; i.p) and placed on a heating pad. After aseptic preparation of the tracheal and scapular region of the rats, a midline incision of the tracheal area was made and a blunt dissection was performed to expose the common carotid artery. Approximately 2 cm of the common carotid artery was freed from the connective tissues, jugular veins, and vagus nerve and a ˜3 mm filter paper, briefly soaked in 30% FeCl3 solution, was placed around the artery for 10 min. The artery was isolated after 15 mins of the removal of filter paper and the rat was euthanized. Thrombus developed was scraped out from the extracted artery and kept for drying for 24 hours. The wet and dry weight of thrombus was recorded and expressed as mg weight of thrombus per kg body weight. % inhibition of the thrombus formation is calculated using the formula: […]
# [3] = Stability of the isolated isomer against conversion into mixture of isomers (keto-enol tautomerism); format: physicochemical; details: normal conditions, even in solutions
# Excerpt: The present invention is realized by way of preferential stereoselective crystallization of one of the isomer {(7aS,2′S)-isomer} from a mixture of isomers with or without dynamic conversion of counter stereo-isomer {(7aR,2′S)-isomer} through enol form. 2-oxo-clopidogrel can exists in three isomeric forms, namely structures of formula II, Formula VI and Formula VII. […] Once the double bond in the ring flips between the tetrahydropyridine nucleus and the thiophene ring, it destroys the chiral centre at 7a position, especially during its formation, resulting in mixture of isomers. Therefore, to date, there are no reports available to exclusively isolate one of the isomer selectively. […] The compounds of the present invention are substantially free of other isomers for example, compound of Formula VI, and Formula VII, apart from isomer of Formula IIB. Substantially free herein means the levels of these compounds individually or cumulatively are less than 10%, preferably less than, 5%, more preferably less than 3%, still more preferably, less than 1.0%.
# [4] = tested on: recurrent ischemic events / major bleeding events; details: cited from earlier work
# rat = details: in rat; cited from earlier work
# [5] = cited from earlier work
# [6] = tested on: ADP induced platelet aggregation; details: cited from earlier work; for time until 50% inhibition of ADP induced platelet aggregation is reached: LTA, 5 μM ADP ex-vivo
# [7] = 2.2 mg/kg p.o. (1.98 mg/kg base)
# [8] = 1.3 mg/kg p.o. (1.17 mg/kg base)
# [9] = patients at high risk of vascular events
# [10] = combined with Aspirin therapy in patients with ACS
smiles,measurement,setting,value
COC(=O)[C@H](c1ccccc1Cl)N1CCC2SC(=O)C=C2C1.Cl (stereo partly drawn) [(2'S)-2-oxoclopidogrel hydrochloride],% inhibition,[1]; [7],48.04%
same,% aggregation,[1]; [7],51.96%
"COC(=O)C(c1ccccc1Cl)N1CCC2SC(=O)C=C2C1 [(7aS,2'S)-2-oxoclopidogrel bisulphate, Methyl (7aS,2′S)-2-(2-chlorophenyl)-2-(2,4,5,6,7,7a-hexahydrothieno[3,2-c]-5-pyridin-2-one)acetate hydrogen sulfate]",% Inhibition of Thrombus Formation (Mean ± SEM),[2]; [8],76 ± 3.3%
same,Dry weight of Thrombus (mg/kg) (Mean ± SEM),[2]; [8],0.98 ± 0.1 mg/kg
same,% aggregation,[1]; 2.5 mg/kg p.o. (1.9 mg/kg base),14.57%
same,% aggregation,[1]; 3.5 mg/kg p.o. (2.7 mg/kg base),9.14%
same,inhibition at 2.5 mg/kg,"[1]; Rattus norvegicus, Platelet, po, 2.5 mg/kg p.o. (1.9 mg/kg base)",85.4%
same,inhibition at 3.5 mg/kg,"[1]; Rattus norvegicus, Platelet, po, 3.5 mg/kg p.o. (2.7 mg/kg base)",90.9%
"COC(=O)C(c1ccccc1Cl)N1CCC2SC(=O)C=C2C1 [(7aS,2′S)-2-oxoclopidogrel, Methyl (7aS,2′S)-2-(2-chlorophenyl)-2-(2,4,5,6,7,7a-hexahydrothieno[3,2-c]-5-pyridin-2-one)acetate]",stability against conversion into mixture of isomers,[3],stable and resistant to conversion into mixture
CC(=O)Oc1ccccc1C(=O)O [Aspirin],"Absolute risk increase (ARI), major bleeding events",[4]; [9],about 0.5%
same,"absolute risk reduction (ARR), recurrent ischemic events",[4]; [9],about 2%
same,increase in the odds of major bleeding events,[4]; [9],about 60%
same,reduction of the risk of recurrent ischemic events,[4]; [9],22%
COC(=O)[C@H](c1ccccc1Cl)N1CCc2sccc2C1 [Clopidogrel bisulphate],% Inhibition of Thrombus Formation (Mean ± SEM),[2]; 4 mg/kg p.o. (3.06 mg/kg base),73 ± 5.3%
same,Dry weight of Thrombus (mg/kg) (Mean ± SEM),[2]; 4 mg/kg p.o. (3.06 mg/kg base),1.10 ± 0.2 mg/kg
same,% aggregation,[1]; 25 mg/kg p.o. (19.15 mg/kg base),22.85%
same,inhibition at 25 mg/kg,"[1]; Rattus norvegicus, Platelet, po, 25 mg/kg p.o. (19.15 mg/kg base)",77.2%
CC(=O)Oc1cc2c(s1)CCN(C(C(=O)C1CC1)c1ccccc1F)C2 (stereo not drawn) [Prasugrel hydrochloride],% aggregation,[1]; 2.2 mg/kg p.o. (2 mg/kg base),18.93%
same,inhibition at 2.2 mg/kg,"[1]; Rattus norvegicus, Platelet, po, 2.2 mg/kg p.o. (2 mg/kg base)",81.1%
"COC(=O)[C@H](c1ccccc1Cl)N1CCc2sccc2C1 [clopidogrel, (+)-(S)-methyl2-(2-chlorophenyl)-2-(6,7-dihydrothieno[3,2-c]pyridin-5(4H)-yl)acetate]","ARR, recurrent ischemic events",[4]; [10],about 2.1%
same,further reduction of the risk of recurrent ischemic events,[4]; [10],20%
same,lethal dose,rat,about 5000 mg per kg
same,share converted to clopidogrel acid in vivo,[5],90%
same,inhibition of ADP induced platelet aggregation,"[6]; 900 mg, at 5 μM ADP",60%
same,inhibition of platelet aggregation,"[6]; 900 mg, induced by 20 μM of ADP (ex vivo)",less than 50%
same,time until 50% inhibition of ADP induced platelet aggregation is reached,[6]; dose 600 mg,2 h
same,time until 50% inhibition of ADP induced platelet aggregation is reached,[6]; loading dose of 300 mg,4 to 6 h

# Reference: patent publication US8536337B2, “Solid forms of methyl (7aS,2′S)-2-(2-chlorophenyl)-2-(2,4,5,6,7,7a-hexahydrothieno[3,2-c]-5-pyridin-2-one)acetate” (IPCA Laboratories Limited, priority 2012, dated 2013)
